Key:
barnyardgrass [1] = test: Test C postemergence; type: in vivo, Echinochloa crus-galli; conditions: Echinochloa crus-galli, post-emergence
How it was run: (§1)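 Plants were kept under greenhouse conditions for 13–15 days following spray. Pre-emergent application went to soil (loam–sand), post-emergent to foliage at 1–4 leaves. Evaluation: visual, percent control against untreated checks.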

morningglory [2] = test: Test A preemergence; type: in vivo, Ipomoea spp.
How it was run: (§2)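 Scoring: eye-based comparison with untreated controls, 0 for no effect through 100 for complete control, at about day 10. Treatments: directed soil spray preemergence; foliar spray postemergence on 2–10 cm plants at the one- to two-leaf stage. Medium: loam soil with sand.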

corn = test: Test A preemergence; type: in vivo, Zea mays; conditions: Zea mays, pre-emergence, 240 h
How it was run: as §2

johnsongrass = test: Test C postemergence; type: in vivo, Sorghum halepense
How it was run: as §1

barnyardgrass [3] = test: Test A preemergence; type: in vivo, Echinochloa crus-galli; conditions: Echinochloa crus-galli, pre-emergence, 240 h
How it was run: as §2

large (Lg) crabgrass = test: Test C postemergence; type: in vivo, Digitaria sanguinalis; conditions: Digitaria sanguinalis, post-emergence
How it was run: as §1

yellow nutsedge = test: Test C postemergence; type: in vivo, Cyperus esculentus; conditions: Cyperus, post-emergence
How it was run: as §1

oilseed rape = test: Test C postemergence; type: in vivo, Brassica napus; conditions: Brassica napus, post-emergence
How it was run: as §1

sedge, umbrella = test: Test B flooded paddy test; type: in vivo, Cyperus difformis; conditions: Cyperus difformis, Flood, 250 g ai/ha; 0 to 100 scale where 0 is no effect and 100 is complete control; read-out: Plant response rating, Sedge, Umbrella
How it was run: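 Evaluation is visual, against untreated controls, 13 to 15 days after treatment. Before treatment, plants reached the 2-leaf stage; pots were then flooded 3 cm deep, compound was added to the water, and that level was maintained. Ratings run 0 to 100, with 100 meaning complete control.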

morningglory [4] = test: Test C postemergence; type: in vivo, Ipomoea coccinea; conditions: Ipomoea, post-emergence
How it was run: as §1

wheat [5] = test: Test A preemergence; type: in vivo, Triticum aestivum
How it was run: as §2

kochia = test: Test C postemergence; type: in vivo, Kochia scoparia; conditions: Bassia scoparia, post-emergence
How it was run: as §1

blackgrass = test: Test C postemergence; type: in vivo, Alopecurus myosuroides; conditions: Alopecurus myosuroides, post-emergence
How it was run: as §1

wheat [6] = test: Test A postemergence; type: in vivo, Triticum aestivum; conditions: Triticum aestivum, post-emergence, 240 h, 0 to 100 scale where 0 is no effect and 100 is complete control, read-out: Plant response rating, Wheat
How it was run: as §2

morningglory [7] = test: Test A postemergence; type: in vivo, Ipomoea spp.; conditions: Ipomoea, post-emergence, 240 h, 0 to 100 scale where 0 is no effect and 100 is complete control, read-out: Plant response rating, Morningglory
How it was run: as §2

[8] = 125 g ai/ha, 0 to 100 scale where 0 is no effect and 100 is complete control

`FC(F)c1cnn(-c2ccccc2Oc2ncc(Cl)cn2)c1` [Compound 80, 5-chloro-2-[2-[4-(difluoromethyl)-1H-pyrazol-1-yl]phenoxy]pyrimidine] was tested. Which pest or weed control at 16 g/ha (barnyardgrass [1]; 16 g ai/ha, postemergence, visual rating, scale 0 to 100 (0 no effect, 100 complete control), 13 to 15 days, read-out: Barnyardgrass plant response rating) did it give?
Its pest or weed control at 16 g/ha is 0%.

And the pest or weed control at 125 g/ha (barnyardgrass [1]; 125 g ai/ha, postemergence, read-out: Plant response rating (0 to 100), Barnyardgrass)?
Its pest or weed control at 125 g/ha is 5%.

What about the pest or weed control at 31 g/ha (barnyardgrass [1]; Postemergence, 31 g ai/ha, scale 0 to 100 (0 no effect, 100 complete control), 13 to 15 days, read-out: Plant response rating, Barnyardgrass) of the same compound?
The pest or weed control at 31 g/ha was 5%.

And the pest or weed control at 62 g/ha (barnyardgrass [1]; Postemergence, 62 g ai/ha, scale 0 to 100 (0 no effect, 100 complete control), read-out: Plant response rating, Barnyardgrass)?
The pest or weed control at 62 g/ha was 5%.

What about the “Plant response rating, Morningglory” value (morningglory [2]; [8]) of the same compound?
Its value is 30.

And the pest or weed control at 500 g/ha (morningglory [2]; Ipomoea, pre-emergence, 240 h, 500 g ai/ha, 0 to 100 scale, 0 no effect, 100 complete control, approx. 10 days, read-out: Morningglory plant response rating)?
Its pest or weed control at 500 g/ha is 80%.

And the Corn plant response rating (crop injury, 0 = no effect, 100 = complete kill) at 125 g/ha (corn; [8])?
Its Corn plant response rating (crop injury, 0 = no effect, 100 = complete kill) at 125 g/ha is 0%.

What about the plant injury at 500 g/ha (corn; 500 g ai/ha, 0 to 100 scale, 0 no effect, 100 complete control, approx. 10 days, read-out: Corn plant response rating) of the same compound?
The plant injury at 500 g/ha was 40%.

What about the “Johnsongrass plant response rating” value (johnsongrass; 16 g ai/ha, postemergence, visual rating, scale 0 to 100 (0 no effect, 100 complete control), 13 to 15 days) of the same compound?
Its value is 0.

And the pest or weed control at 125 g/ha (johnsongrass; Sorghum halepense, post-emergence, 125 g ai/ha, postemergence, read-out: Plant response rating (0 to 100), Johnsongrass)?
Its pest or weed control at 125 g/ha is 5%.

What about the pest or weed control at 31 g/ha (johnsongrass; Sorghum halepense, post-emergence, Postemergence, 31 g ai/ha, scale 0 to 100 (0 no effect, 100 complete control), 13 to 15 days, read-out: Plant response rating, Johnsongrass) of the same compound?
Its pest or weed control at 31 g/ha is 0%.

And the pest or weed control at 62 g/ha (johnsongrass; Sorghum halepense, post-emergence, Postemergence, 62 g ai/ha, scale 0 to 100 (0 no effect, 100 complete control), read-out: Plant response rating, Johnsongrass)?
Its pest or weed control at 62 g/ha is 5%.

And the pest or weed control at 125 g/ha (barnyardgrass [3]; 125 g ai/ha, 0 to 100 scale where 0 is no effect and 100 is complete control, read-out: Plant response rating, Barnyardgrass)?
Its pest or weed control at 125 g/ha is 60%.

And the pest or weed control at 500 g/ha (barnyardgrass [3]; 500 g ai/ha, 0 to 100 scale, 0 no effect, 100 complete control, approx. 10 days, read-out: Barnyardgrass plant response rating)?
Its pest or weed control at 500 g/ha is 100%.

What about the pest or weed control at 16 g/ha (large (Lg) crabgrass; 16 g ai/ha, postemergence, visual rating, scale 0 to 100 (0 no effect, 100 complete control), 13 to 15 days, read-out: Crabgrass, Large plant response rating) of the same compound?
Its pest or weed control at 16 g/ha is 0%.

What about the pest or weed control at 125 g/ha (large (Lg) crabgrass; 125 g ai/ha, postemergence, read-out: Plant response rating (0 to 100), Crabgrass, Large) of the same compound?
The pest or weed control at 125 g/ha was 5%.

What about the pest or weed control at 31 g/ha (large (Lg) crabgrass; Postemergence, 31 g ai/ha, scale 0 to 100 (0 no effect, 100 complete control), 13 to 15 days, read-out: Plant response rating, Crabgrass, Large) of the same compound?
Its pest or weed control at 31 g/ha is 5%.

And the pest or weed control at 62 g/ha (large (Lg) crabgrass; Postemergence, 62 g ai/ha, scale 0 to 100 (0 no effect, 100 complete control), read-out: Plant response rating, Crabgrass, Large)?
Its pest or weed control at 62 g/ha is 5%.

And the pest or weed control at 125 g/ha (yellow nutsedge; 125 g ai/ha, postemergence, read-out: Plant response rating (0 to 100), Nutsedge, Yellow)?
Its pest or weed control at 125 g/ha is 5%.

What about the pest or weed control at 31 g/ha (yellow nutsedge; Postemergence, 31 g ai/ha, scale 0 to 100 (0 no effect, 100 complete control), 13 to 15 days, read-out: Plant response rating, Nutsedge, Yellow) of the same compound?
The pest or weed control at 31 g/ha was 5%.

What about the pest or weed control at 62 g/ha (yellow nutsedge; Postemergence, 62 g ai/ha, scale 0 to 100 (0 no effect, 100 complete control), read-out: Plant response rating, Nutsedge, Yellow) of the same compound?
Its pest or weed control at 62 g/ha is 5%.

And the plant injury at 125 g/ha (oilseed rape; 125 g ai/ha, postemergence, read-out: Plant response rating (0 to 100), Oilseed Rape)?
Its plant injury at 125 g/ha is 90%.

And the plant injury at 31 g/ha (oilseed rape; Postemergence, 31 g ai/ha, scale 0 to 100 (0 no effect, 100 complete control), 13 to 15 days, read-out: Plant response rating, Oilseed Rape)?
The plant injury at 31 g/ha was 70%.

What about the plant injury at 62 g/ha (oilseed rape; Postemergence, 62 g ai/ha, scale 0 to 100 (0 no effect, 100 complete control), read-out: Plant response rating, Oilseed Rape) of the same compound?
Its plant injury at 62 g/ha is 80%.

And the pest or weed control at 250 g/ha (sedge, umbrella)?
The pest or weed control at 250 g/ha was 80%.

And the pest or weed control at 125 g/ha (morningglory [4]; 125 g ai/ha, postemergence, read-out: Plant response rating (0 to 100), Morningglory)?
Its pest or weed control at 125 g/ha is 60%.

What about the pest or weed control at 31 g/ha (morningglory [4]; Postemergence, 31 g ai/ha, scale 0 to 100 (0 no effect, 100 complete control), 13 to 15 days, read-out: Plant response rating, Morningglory) of the same compound?
The pest or weed control at 31 g/ha was 10%.

And the pest or weed control at 62 g/ha (morningglory [4]; Postemergence, 62 g ai/ha, scale 0 to 100 (0 no effect, 100 complete control), read-out: Plant response rating, Morningglory)?
Its pest or weed control at 62 g/ha is 60%.

And the “Plant response rating, Wheat” value (wheat [5]; [8])?
The value was 10.

And the plant injury at 500 g/ha (wheat [5]; Triticum aestivum, pre-emergence, 240 h, 500 g ai/ha, 0 to 100 scale, 0 no effect, 100 complete control, approx. 10 days, read-out: Wheat plant response rating)?
The plant injury at 500 g/ha was 50%.

What about the pest or weed control at 16 g/ha (kochia; 16 g ai/ha, postemergence, visual rating, scale 0 to 100 (0 no effect, 100 complete control), 13 to 15 days, read-out: Kochia plant response rating) of the same compound?
The pest or weed control at 16 g/ha was 60%.

What about the pest or weed control at 125 g/ha (kochia; 125 g ai/ha, postemergence, read-out: Plant response rating (0 to 100), Kochia) of the same compound?
Its pest or weed control at 125 g/ha is 95%.

And the pest or weed control at 31 g/ha (kochia; Postemergence, 31 g ai/ha, scale 0 to 100 (0 no effect, 100 complete control), 13 to 15 days, read-out: Plant response rating, Kochia)?
Its pest or weed control at 31 g/ha is 90%.

What about the pest or weed control at 62 g/ha (kochia; Postemergence, 62 g ai/ha, scale 0 to 100 (0 no effect, 100 complete control), read-out: Plant response rating, Kochia) of the same compound?
The pest or weed control at 62 g/ha was 95%.

And the pest or weed control at 16 g/ha (blackgrass; 16 g ai/ha, postemergence, visual rating, scale 0 to 100 (0 no effect, 100 complete control), 13 to 15 days, read-out: Blackgrass plant response rating)?
Its pest or weed control at 16 g/ha is 0%.

And the pest or weed control at 125 g/ha (blackgrass; 125 g ai/ha, postemergence, read-out: Plant response rating (0 to 100), Blackgrass)?
The pest or weed control at 125 g/ha was 40%.

What about the pest or weed control at 31 g/ha (blackgrass; Postemergence, 31 g ai/ha, scale 0 to 100 (0 no effect, 100 complete control), 13 to 15 days, read-out: Plant response rating, Blackgrass) of the same compound?
Its pest or weed control at 31 g/ha is 5%.

And the pest or weed control at 62 g/ha (blackgrass; Postemergence, 62 g ai/ha, scale 0 to 100 (0 no effect, 100 complete control), read-out: Plant response rating, Blackgrass)?
The pest or weed control at 62 g/ha was 10%.

What about the plant injury at 125 g/ha (wheat [6]; 125 g ai/ha) of the same compound?
Its plant injury at 125 g/ha is 40%.

And the plant injury at 500 g/ha (wheat [6]; 500 g ai/ha)?
Its plant injury at 500 g/ha is 80%.

What about the pest or weed control at 125 g/ha (morningglory [7]; 125 g ai/ha) of the same compound?
Its pest or weed control at 125 g/ha is 90%.

And the pest or weed control at 500 g/ha (morningglory [7]; 500 g ai/ha)?
Its pest or weed control at 500 g/ha is 100%.
